Literature values in patent US20120148512A1, “Method for Increasing the Sun Protection Factor of a Cosmetic and/or Dermatological Preparation” (BASF SE, priority 2006, published 2012).

Structure (SMILES)	absorption retained in the absorption maximum (following sun-simulated irradiation (5 and 10 MED))	photostability (filter substance on its own)
O=S(=O)(O)c1ccc2nc(-c3ccccc3)[nH]c2c1 [2-phenylbenzimidazole-5-sulfonic acid]	more than 90%	
COc1ccc(C(=O)CC(=O)c2ccc(C(C)(C)C)cc2)cc1 [BMDBM, 4-(tert-butyl)-4′-methoxydibenzoylmethane]		not photostable
